Earlier results, collected in US7829698B2, “Nano-particles comprising cucurbituril derivatives, pharmaceutical composition containing the same, and process for the preparation thereof” (Postech Foundation, priority 2003, dated 2010).
Peptide text beside a SMILES is read from it.

conditions: host cucurbituril

In order of falling “Kf (non-covalent coupling constant between cucurbituril and guest molecule)” value:
1. NCCCCCCN [NH2(CH2)6NH2]  2.7e+06 M⁻¹
2. CCCCCN [Me(CH2)4NH2]  24000 M⁻¹
3. NCCC(=O)O [H2N(CH2)2COOH]  2300 M⁻¹
4. CC(C)[C@H](NC(=O)CN)C(=O)O [Gly-val] (H-Gly-Val-OH)  1500 M⁻¹
5. CC(C)[C@H](N)C(=O)O [L-Val]  1400 M⁻¹
6. N[C@@H](Cc1ccccc1)C(=O)O [Phe]  1400 M⁻¹
7. N[C@@H](Cc1ccccc1)C(=O)NCC(=O)O [Phe-gly] (H-Phe-Gly-OH)  1100 M⁻¹
8. C[C@H](N)C(=O)O [L-Ala]  1000 M⁻¹
9. NCCCCCO [H2N(CH2)5OH]  690 M⁻¹
10. CCC(=O)O [CH3CH2COOH]  590 M⁻¹
11. N#CCCN [H2N(CH2)2CN]  440 M⁻¹
12. CC(C)C[C@H](N)C(=O)NCC(=O)O [Leu-gly] (H-Leu-Gly-OH)  370 M⁻¹
